Our source for the drug sensitivity score values is the supplement of paper PMC10920090.

The subject of experiment [1] is MDA-MB-231. Description: drug sensitivity score (DSS), cytotoxicity CellTox Green; higher = more cytotoxic; extreme values may be limits of the assay. As to conditions: 72 h.
The subject of experiment [2] is MDA-MB-231. Description: drug sensitivity score (DSS), cell viability CellTiter-Glo; higher = more sensitive; extreme values may be limits of the assay. As to conditions: 72 h. Background: ATP-based viability assays read luminescence as a measure of living cells.
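Wherever drug sensitivity score (DSS), cytotoxicity CellTox Green is given: DSS summarises each dose–response curve by combining IC50, EC50, maximal inhibition and efficacy across drug concentrations.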

As to `COc1cc2/c(=N/c3ccc(Br)cc3F)nc[nH]c2cc1OCC1CCN(C)CC1` [Vandetanib], the drug sensitivity score in the experiment on MDA-MB-231 [1] (shRNA: shPPFIA1_1) was determined as 0 DSS; in the experiment on MDA-MB-231 [1] (shRNA: shScramble), 2 DSS; with MDA-MB-231 [2] (shRNA: shPPFIA1_1) it was 3.6 DSS; with MDA-MB-231 [2] (shRNA: shScramble), 0 DSS.

`O=C(Nc1cccc(NC(=O)c2cccc(O)c2O)c1)c1cccc(O)c1O` [MST-312]: the drug sensitivity score with MDA-MB-231 [1] (shRNA: shPPFIA1_1) amounted to 0 DSS; in the experiment on MDA-MB-231 [1] (shRNA: shScramble), 0 DSS; in the experiment on MDA-MB-231 [2] (shRNA: shPPFIA1_1), 8.6 DSS; with MDA-MB-231 [2] (shRNA: shScramble), 7.6 DSS.

In the case of `O=C(Nc1cccc(Nc2ncc(Br)c(NCCc3cnc[nH]3)n2)c1)N1CCCC1` [BX-912], the drug sensitivity score was determined as 1.8 DSS in the experiment with MDA-MB-231 [1] (shRNA: shPPFIA1_1), 3.1 DSS in the experiment on MDA-MB-231 [1] (shRNA: shScramble), 3.5 DSS in the experiment with MDA-MB-231 [2] (shRNA: shPPFIA1_1) and 5.7 DSS in the experiment on MDA-MB-231 [2] (shRNA: shScramble).

Turning to `CCNC(=O)CCC/C=C\C[C@@H]1[C@@H](/C=C/[C@@H](O)CCc2ccccc2)[C@H](O)C[C@@H]1O` [Bimatoprost], the drug sensitivity score in the experiment with MDA-MB-231 [1] (shRNA: shPPFIA1_1), in the experiment with MDA-MB-231 [1] (shRNA: shScramble), in the experiment with MDA-MB-231 [2] (shRNA: shPPFIA1_1) and in the experiment with MDA-MB-231 [2] (shRNA: shScramble) was 0 DSS in each case.

For the compound `CC(C)(O)CC(=O)NCCn1ccc2ncnc(Nc3ccc(Oc4cccc(C(F)(F)F)c4)c(Cl)c3)c21` [TAK-285], the drug sensitivity score is 0 DSS in the experiment on MDA-MB-231 [1] (shRNA: shPPFIA1_1), 0 DSS in the experiment with MDA-MB-231 [1] (shRNA: shScramble), 0.9 DSS in the experiment on MDA-MB-231 [2] (shRNA: shPPFIA1_1) and 0 DSS in the experiment with MDA-MB-231 [2] (shRNA: shScramble).

In the case of `Nc1nc(Cl)nc2c1ncn2[C@@H]1O[C@H](CO)[C@@H](O)[C@@H]1F` [Clofarabine], the drug sensitivity score was found to be 0 DSS in the experiment with MDA-MB-231 [1] (shRNA: shPPFIA1_1), 0 DSS in the experiment with MDA-MB-231 [1] (shRNA: shScramble), 0 DSS in the experiment with MDA-MB-231 [2] (shRNA: shPPFIA1_1) and 6.5 DSS with MDA-MB-231 [2] (shRNA: shScramble).

`O=S(=O)(c1cccc2c(O)nccc12)N1CCCNCC1` [Hydroxyfasudil]: the drug sensitivity score in the experiment on MDA-MB-231 [1] (shRNA: shPPFIA1_1), in the experiment on MDA-MB-231 [1] (shRNA: shScramble), in the experiment with MDA-MB-231 [2] (shRNA: shPPFIA1_1) and in the experiment with MDA-MB-231 [2] (shRNA: shScramble) was 0 DSS each time.

In the case of `CC(=O)N(O)CCCCCNC(=O)CCC(=O)N(O)CCCCCNC(=O)CCC(=O)N(O)CCCCCN` [Deferoxamine], the drug sensitivity score with MDA-MB-231 [1] (shRNA: shPPFIA1_1) worked out at 0 DSS; in the experiment with MDA-MB-231 [1] (shRNA: shScramble), 0 DSS; in the experiment with MDA-MB-231 [2] (shRNA: shPPFIA1_1) it was 2.5 DSS; in the experiment on MDA-MB-231 [2] (shRNA: shScramble) it was 2.7 DSS.

For the compound `O=C(Nc1nc2cccc(-c3ccc(CN4CCS(=O)(=O)CC4)cc3)n2n1)C1CC1` [Filgotinib], the drug sensitivity score with MDA-MB-231 [1] (shRNA: shPPFIA1_1) was determined as 0 DSS; with MDA-MB-231 [1] (shRNA: shScramble), 0 DSS; in the experiment on MDA-MB-231 [2] (shRNA: shPPFIA1_1), 0 DSS; in the experiment on MDA-MB-231 [2] (shRNA: shScramble), 0.2 DSS.

For `CNc1nc(-c2ccc3c(N)n[nH]c3c2)cc(N2C[C@@H](C(=O)NC3CCCCC3)CC[C@H]2C)n1`, the drug sensitivity score came to 0 DSS with MDA-MB-231 [1] (shRNA: shPPFIA1_1), 0 DSS in the experiment with MDA-MB-231 [1] (shRNA: shScramble), 0 DSS in the experiment on MDA-MB-231 [2] (shRNA: shPPFIA1_1) and 3.6 DSS in the experiment on MDA-MB-231 [2] (shRNA: shScramble).

In the case of `CC[C@@H]1C(=O)N(C)c2cnc(Nc3ccc(C(=O)NC4CCN(C)CC4)cc3OC)nc2N1C1CCCC1` [BI 2536], the drug sensitivity score in the experiment on MDA-MB-231 [1] (shRNA: shPPFIA1_1) turned out to be 0.3 DSS; in the experiment on MDA-MB-231 [1] (shRNA: shScramble), 0 DSS; with MDA-MB-231 [2] (shRNA: shPPFIA1_1), 0 DSS; in the experiment on MDA-MB-231 [2] (shRNA: shScramble), 11.3 DSS.

As to `CCN(CC)CCNC(=O)c1c(C)[nH]c(/C=C2\C(=O)Nc3ccc(F)cc32)c1C` [Sunitinib], the drug sensitivity score in the experiment with MDA-MB-231 [1] (shRNA: shPPFIA1_1) worked out at 0 DSS; in the experiment with MDA-MB-231 [1] (shRNA: shScramble) it was 0 DSS; with MDA-MB-231 [2] (shRNA: shPPFIA1_1), 0 DSS; in the experiment on MDA-MB-231 [2] (shRNA: shScramble), 1.1 DSS.

For `C=CCn1c(=O)c2cnc(Nc3ccc(N4CCN(C)CC4)cc3)nc2n1-c1cccc(C(C)(C)O)n1` [MK1775], the drug sensitivity score in the experiment with MDA-MB-231 [1] (shRNA: shPPFIA1_1) was 9.4 DSS; in the experiment on MDA-MB-231 [1] (shRNA: shScramble), 7.6 DSS; with MDA-MB-231 [2] (shRNA: shPPFIA1_1), 5.1 DSS; in the experiment with MDA-MB-231 [2] (shRNA: shScramble) it was 7.5 DSS.

For the compound `Oc1ncc(N(CCCl)CCCl)c(O)n1` [Uramustine], the drug sensitivity score in the experiment on MDA-MB-231 [1] (shRNA: shPPFIA1_1), with MDA-MB-231 [1] (shRNA: shScramble), with MDA-MB-231 [2] (shRNA: shPPFIA1_1) and in the experiment with MDA-MB-231 [2] (shRNA: shScramble) was 0 DSS throughout.

As for `CO[C@H]1C(=O)[C@]2(C)[C@@H](OC)C[C@H]3OC[C@@]3(OC(C)=O)[C@H]2[C@H](OC(=O)c2ccccc2)[C@]2(O)C[C@H](OC(=O)[C@H](O)[C@@H](NC(=O)OC(C)(C)C)c3ccccc3)C(C)=C1C2(C)C` [Cabazitaxel], the drug sensitivity score was determined as 0 DSS with MDA-MB-231 [1] (shRNA: shPPFIA1_1), 9.7 DSS with MDA-MB-231 [1] (shRNA: shScramble), 16.4 DSS with MDA-MB-231 [2] (shRNA: shPPFIA1_1) and 11.5 DSS with MDA-MB-231 [2] (shRNA: shScramble).

Regarding `Cc1ccc(C(=O)Nc2ccc(CN3CCN(C)CC3)c(C(F)(F)F)c2)cc1C#Cc1cnc2cccnn12` [Ponatinib], the drug sensitivity score with MDA-MB-231 [2] (shRNA: shPPFIA1_1) was determined as 0.1 DSS; with MDA-MB-231 [2] (shRNA: shScramble), 3.6 DSS.

As to `CCC(C)(C)C(=O)O[C@H]1C[C@@H](C)C=C2C=C[C@H](C)[C@H](CC[C@@H]3C[C@@H](O)CC(=O)O3)[C@H]21` [Simvastatin], the results for the drug sensitivity score in the experiment on MDA-MB-231 [2] (shRNA: shPPFIA1_1) and in the experiment with MDA-MB-231 [2] (shRNA: shScramble) were 0 DSS and 2.8 DSS, respectively.
